“Also recorded” adds a separate entry of the source. Read-outs that look alike come from different tables or passages of the source.
What was measured:
NF-κB [1] = assay: Activation of transcription factor NF-κB in RAW 264.7 cells; assay type: cell-based; settings: 50 μg/ml, mouse RAW 264.7 cells
[2] = system: experimental allergic encephalomyelitis (EAE), PLP immunization; assay: Clinical severity of PLP-induced EAE in SWXJ-14 mice; assay type: in vivo
Method: FIG. 2. Effect of daily administration of c-PTIO (carboxy-PTIO) on EAE in SWXJ-14 mice. EAE was induced in SWJX-14 mice by two subcutaneous immunizations (d.0 and d.7) of […] PLP in CFA over two injection sites. Mice (N=3) were treated beginning on day 5 post-immunization with 2 mg/mouse c-PTIO […] i.p. and was continued until day 16 post-immunization (day 0 being the day of first immunization). Mean severity scores were graded as detailed in Table 1.
FIG. 4. Effect of D609 on the development of EAE in SWXJ-14 mice. SWXJ-mice were immunized with PLP as detailed for FIG. 2. Mice (n=2) were treated i.p. with 1 mg/mouse D609 from day 5 through day 14 post-immunization. Mean severity scores were graded as detailed in Table 1.
FIG. 12. Effect of the administration of various doses of uric acid on EAE in SWXJ-14 mice. EAE was induced in SWXJ-14 mice by two subcutaneous immunizations (d.0 and 7) of […] PLP in CFA over two injection sites. Mice (n=5) were treated once daily, beginning on day 5 post-immunization, with the indicated doses of uric acid. Mean severity scores were graded as detailed in Table 1.
(§1) Induction of EAE in rats by adoptive transfer of MBP-specific T cells or in SJL or SWXJ-14 mice by immunization with MBP or PLP 139-151, a peptide derived from […] [8], results in variable disease. We have scored the clinical systems of EAE as tabulated below.
(§2) Severity scores and symptoms of Experimental Allergic
(§3) 1 piloerection, tail weakness
(§4) 3 hind limb weakness/paralysis
(§5) 4 hind and forelimb paralysis
(§6) In FIG. 1, EAE was elicited in 11 week old female Lewis rats by the adoptive transfer of 20×10^6 cells of the MBP-specific line 5HGBP.G5 activated by stimulation with MBP and syngeneic APC 48 hours previously and NO levels measured 5 days after transfer. In SWXJ-14 mice, EAE was triggered by two subcutaneous immunizations (d.0 and 7) with 100 μg PLP in CFA over two injection sites, and NO levels measured 18 days later. Results expressed represent the mean values obtained from a minimum of 4 animals. Peak severity of the symptoms of EAE ranged from 2-3 for the rats and 4-5 for the mice. NO was semi-quantitated using spin trapping with DETC and EPR-spectroscopy as described previously.
(§7) Clinical symptoms manifest as an ascending paralysis approximately 13 days after immunization and the disease rapidly progresses to its fatal endpoint by day 16-20. […] NO levels in the brains and spinal cords of animals treated with a single daily dose of PTIO were semi-quantitated by spin trapping and EPR spectroscopy on day 17 after immunization, one day after treatment was terminated. […] We expect that the removal of NO by PTIO should not necessarily interfere with the induction of the response responsible for NO production and that as the supplied PTIO is used up NO levels should rapidly return to control values.
(§8) In contrast to SJL mice, SWX mice immunized with PLP undergo a progressive,often fatal form of EAE. Clinical symptoms manifest as an ascending paralysis approximately 13 days after immunization and the disease rapidly progresses to its fatal endpoint by days 16-20. […] We conclude that the amount of carboxy-PTIO we administered, especially considering the short in vivo half life of the compound, was only sufficient to delay the onset of the EAE in the SWXJ-14 mouse.
NO is not universally considered to be a molecule with significant in vivo toxicity and peroxynitrite is thought to be the more toxic molecule produced by activated inflammatory cells resulting from the interaction of NO and superoxide. We would henceforth expect that removal of NO would reduce peroxynitrite formation. To determine whether NO or peroxynitrite is more likely to be ultimately responsible for clinical disease in EAE we have performed a series of experiments using uric acid, a known scavenger of peroxynitrite, to treat EAE induced in SWXJ-14 mice by immunization with PLP.

NF-κB [3] = assay: Activation of transcription factor NF-κB in A549 cells; assay type: cell-based; settings: 50 μg/ml, human A549 cells
iNOS gene [4] = assay: Transcriptional activation of the iNOS gene in RAW 264.7 cells (gel-shift assays); assay type: cell-based; settings: 50 μg/ml, mouse RAW 264.7 cells
A549 cells = assay: Nitrite production by activated A549 cells (Griess reaction); assay type: cell-based, human; settings: 50 μg/ml; IL-1β, γIFN, TNFα activated
Method: FIG. 5. […] The accumulation of nitrite over time was measured in the presence and absence of D609. Human A549 cells were activated with IL-1β (100 units/ml), γIFN (500 units/ml) and TNFα (10 ng/ml), and the accumulation of nitrite over time was measured using the Griess reaction. The concentration of nitrite was calculated using a standard solution of nitrite in culture media.
We have employed the human lung carcinoma cell line A549 (ATCC) and, as for comparison, the mouse monocyte-macrophage cell line RAW 264.7 (ATCC) as producers of NO. Treatment of RAW 264.7 cells with 1 μg/ml of LPS or A549 cells with IL-1β (100 units/ml), γIFN (500 units/ml), and TNFα (10 ng/ml) stimulates the production of NO which can be detected by the accumulation of nitrite in culture supernatants. Using these methods of stimulation, RAW cells produced up to 100 μM of nitrite during 24 hours of culture while the A549 cells generally produced roughly 10 fold less nitrite in our experiments.

[5] = system: phosphatidylcholine-specific phospholipase C (PC-PLC); settings: via blocking activation of PC-PLC [16]; cited from earlier work
iNOS gene [6] = assay: Transcriptional activation of the iNOS gene in A549 cells (gel-shift assays); assay type: cell-based; settings: 50 μg/ml, human A549 cells
Water solubility = assay type: physicochemical
[7] = system: experimental allergic encephalomyelitis (EAE), immunization-elicited; assay: Clinical severity of immunization-elicited EAE in SJL mice; assay type: in vivo
Text: as §1, §2, §3, §4, §5
(§9) SJL mice are immunized subcutaneously with pMBP in adjuvant to induce EAE, from which they often recover. Commencing ten days post-immunization, groups of mice (n=6) were treated once daily with 2 mg of either PTIO or carboxy-PTIO intraperitoneally and observed for clinical signs of EAE which were graded as detailed in Table 1. […] At 18 days […], NO determinations were performed in several mice from each group.

nitric oxide (NO) [8] = assay: NO levels in spinal cord and brain of SJL mice with EAE; assay type: in vivo
Method: as §9

[9] = system: experimental allergic encephalomyelitis (EAE), MBP-specific T cell transfer; assay: Clinical severity of adoptive transfer EAE in Lewis rats; assay type: in vivo; settings: EAE mediated by T cell transfer
Text: as §1
______________________________________
as §2, §3, §4, §5, §6
Rats were injected i.v. with 20×10^6 MBP-specific CD4 T cells activated in vitro. Two days later the animals were treated with a single dose of either PTIO (20 mg) or a mixture of PTIO (20 mg), indomethacin (1 mg), and allopurinol (13 mg). Treatment was continued on a daily basis until day 4 and animals were sacrificed for NO measurement the following day.

[10] = rats, i.v. or i.p., estimated; cited from earlier work
nitric oxide (NO) [11] = assay: NO levels in brain and spinal cord of SWXJ-14 mice with EAE (spin trapping with DETC, EPR); assay type: in vivo
Method: FIG. 3. Effect of daily administration of c-PTIO on NO levels in the brain and spinal cord of SWXJ-14 mice immunized with PLP. SWXJ-14 mice were immunized as described below for FIG. 1. Beginning 4 days post immunization, mice (n=7) were treated with 2 mg c-PTIO given i.p. until 16 days post-immunization. Mean severity scores were graded as detailed in Table 1. Mean nitric oxide levels in brain and spinal cord were semi-quantitated using spin-trapping with DETC and EPR spectroscopy at 17 days post-immunization as described elsewhere. (For brain or spinal cord results are represented as follows: Left hand column: untreated. Center column: treated with c-PTIO. Right hand column: no EAE control)
FIG. 13. Effect of the administration of uric acid on brain and spinal cord NO levels and the clinical severity of EAE in SWXJ-14 mice. SWXJ-14 mice were immunized with PLP in CFA as described for FIG. 12 and treated once daily with the indicated doses of uric acid i.p. At day 16 post-immunization the animals were euthanized and NO levels in brain and spinal cord assessed as detailed for FIG. 3. Results are for individual mice. Each central white column represents the spinal cord NO level. The black column to the left of a white column represents the clinical severity score. The cross hatched column to the right of a white column represents the brain NO level.
as §6, §7, §8
At 16 days after immunization, several mice from each group were euthanized so that NO levels in their brains and spinal cords could be measured using spin-trapping and EPR spectroscopy.

[12] = mice, i.v. or i.p., estimated; cited from earlier work
[13] = system: experimental allergic encephalomyelitis (EAE), PLP immunization; assay: Survival of SWXJ-14 mice with EAE; assay type: in vivo
Method: FIG. 14. Comparison of the survival of SWXJ-14 mice with EAE treated with PTIO and uric acid. SWXJ-mice were immunized with PLP in CFA as described for FIG. 12 and treated once daily with a 2 mg dose of uric acid or PTIO i.p. from day 5 to day 13, followed by two daily doses on day 14 and three daily doses thereafterward.
To more directly compare the action of PTIO and uric acid in EAE we have administered each of these agents in parallel to PLP-immunized SWXJ-14 mice. In these experiments the mice were immunized with PLP and treated with increasing doses of PTIO or uric acid beginning at day 5 after immunization.

[14] = day 17 after immunization, one day after treatment ended
[15] = single daily dose of 100 mg/kg, day 17

S=C(S)OC1CC2CC1C1CCCC21 (stereo not shown) [D609, tricyclodecan-9-yl-xanthogenate]
Activation of transcription factor NF-κB (NF-κB [1]): inhibits
Onset of clinical symptoms of EAE (FIG. 4) ([2]; 1 mg daily i.p., day 5-14): delays the onset of the clinical symptoms of EAE
Activation of transcription factor NF-κB (NF-κB [3]): inhibits
Transcriptional activation of the iNOS gene (iNOS gene [4]): inhibits the transcriptional activation of the iNOS gene
Nitrite production by A549 cells (FIG. 5) (A549 cells): completely inhibited nitrite production; also recorded: inhibits nitrite production
Induction of iNOS [5]: inhibits the induction of iNOS by blocking the activation of phosphatidylcholine-specific phospholipase C (PC-PLC)
Transcriptional activation of the iNOS gene (iNOS gene [6]): inhibits the transcriptional activation of the iNOS gene

CC1(C)N([O])C(c2ccc(C(=O)O)cc2)=[N+]([O-])C1(C)C [carboxy-PTIO, 2-(4-carboxyphenyl)-4,4,5,5-tetramethylimidazoline-1-oxyl-3-oxide]
Water solubility (Water solubility): water soluble
Overall NO production and therapeutic effect in SWXJ-14 mice ([2]; carboxy-PTIO administration): limited NO production to the spinal cord and had a clear therapeutic effect
Onset and severity of clinical symptoms of EAE (FIG. 9) ([2]; single daily dose of 100 mg/kg): delays the onset and reduces the severity of the clinical symptoms of EAE
Onset and severity of clinical symptoms of EAE (FIG. 2) ([2]; two daily doses of 100 mg/kg): delays the onset and reduces the severity of the clinical symptoms of EAE
Clinical course of EAE (FIG. 11) ([2]; two daily doses of approximately 2 mg): dramatically improves the clinical course of EAE by comparison with a single daily dose
Onset and severity of EAE (FIG. 7) ([7]; 2 mg once daily i.p. from day 10 post-immunization, n=6): delayed onset of disease and somewhat lessened severity by comparison with untreated animals
Clinical symptoms of EAE ([7]; SJL mice, i.p. administration): forestall the appearance of clinical symptoms of EAE
Clinical severity ([7]; SJL mouse - immunization EAE, severity score 1-5, Table 2): 0.7
Brain NO increase (FIG. 8) (nitric oxide (NO) [8]; 2 mg once daily i.p., day 18): also inhibited
NO levels in spinal cord (FIG. 8) (nitric oxide (NO) [8]; 2 mg once daily i.p., day 18): lower in the spinal cords
Levels of NO in spinal cord (nitric oxide (NO) [8]; SJL mice, i.p. administration): reduce levels of NO detected in spinal cord
NO-spinal cord (nitric oxide (NO) [8]; SJL mouse - immunization EAE, Table 2): 1.4 mM
Treatment of EAE mediated by T cell transfer [9]: successfully treated
Biological half-life in blood [10]: less than five
NO levels in brain (FIG. 3) (nitric oxide (NO) [11]; [14]): low levels of NO in brain tissue compared to untreated PLP-immunized controls
NO levels in spinal cord (FIG. 3) (nitric oxide (NO) [11]; [14]): somewhat less than the spinal cord NO levels detected in the surviving untreated animals
NO induction in brain (FIG. 10) (nitric oxide (NO) [11]; [15]): prevented the induction of NO in brain
NO levels in spinal cord (FIG. 10) (nitric oxide (NO) [11]; [15]): somewhat less than the spinal cord NO levels detected in the surviving untreated animals
Biological half-life in blood [12]: less than five

Oc1nc(O)c2[nH]c(O)nc2n1 [uric acid, 2,6,8-trihydroxypurine]
Mice remaining healthy (FIG. 12) ([2]; high dose of uric acid): The majority of the mice treated with a high dose of uric acid remained healthy throughout the length of the experiment
Onset and severity of clinical symptoms of EAE (FIG. 12) ([2]; uric acid once daily from day 5 post-immunization): delays the onset and severity of the clinical symptoms of EAE in these animals in a dose dependent fashion
NO levels in spinal cord and brain (FIG. 13) (nitric oxide (NO) [11]; day 16, mice that failed to show symptoms of EAE): significant levels of NO were detected in spinal cord and brain
Improvement in clinical signs of surviving mice (FIG. 14) ([13]; at termination of the experiment): a number were actually beginning to show some improvement in the clinical signs of their disease
Mice still alive (FIG. 14) ([13]; several days after day 18, 2 mg i.p. once daily day 5-13, two doses day 14, then three daily): 80%
